Test results taken from US6355799B1, “Substituted benzene compounds, process for their preparation, and herbicidal and defoliant compositions containing them” (ISK Americas Incorporated, priority 1997, dated 2002).

Tests used:
Format in all cases: in vivo
[1] = tested on: redroot pigweed (Amaranthus retroflexus, AMARE); experiment: Pre-emerge test, greenhouse herbicide activity screening; conditions: pre-emerge, phytotoxicity rating 0-100 at 14 days after application
How it was run: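 Herbicidal damage is scored 0 (none) to 100 (complete plant death) two weeks after a simulated field spray. Rates span 15–1000 g ai/ha, delivered in acetone at 187 l/ha. For post-emergence treatments, plants have 2–3 leaves and the spray carries 0.25% v/v non-ionic surfactant.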

[2] = tested on: johnsongrass (Sorghum halepense, SORHA); experiment: as above; conditions: pre-emerge, phytotoxicity rating 0-100 at 14 days after application
How it was run: (§1)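 Rating: 0–100 visual injury, 14 DAA. Application: acetone, 187 l/ha, 15–1000 g ai/ha, flat-fan track sprayer with nozzle 40–45 cm above soil or canopy. Post-emerge runs used 0.25% v/v surfactant on 2–3 leaf plants.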

[3] = tested on: lambsquarters (Chenopodium album, CHEAL); experiment: as above; conditions: pre-emerge, phytotoxicity rating 0-100 at 14 days after application
How it was run: as §1

[4] = tested on: sicklepod (Cassia obtusifolia, CASOB); experiment: as above; conditions: pre-emerge, phytotoxicity rating 0-100 at 14 days after application
How it was run: as §1

[5] = tested on: green foxtail (Setaria viridis, SETVI); experiment: as above; conditions: pre-emerge, phytotoxicity rating 0-100 at 14 days after application
How it was run: as §1

[6] = tested on: common ragweed (Ambrosia artemisizfolia L., AMBEL); experiment: as above; conditions: pre-emerge, phytotoxicity rating 0-100 at 14 days after application
How it was run: as §1

[7] = tested on: barnyardgrass (Echinochloa crus-galli, ECHCG); experiment: as above; conditions: pre-emerge, phytotoxicity rating 0-100 at 14 days after application
How it was run: as §1

[8] = tested on: large crabgrass (Digitaria sanguinalis, DIGSA); experiment: as above; conditions: pre-emerge, phytotoxicity rating 0-100 at 14 days after application
How it was run: as §1

[9] = tested on: velvetleaf (Abutilon theophrasti, ABUTH); experiment: as above; conditions: pre-emerge, phytotoxicity rating 0-100 at 14 days after application
How it was run: as §1

[10] = tested on: ivyleaf morningglory (Ipomoea hederacea, IPOHE); experiment: as above; conditions: pre-emerge, phytotoxicity rating 0-100 at 14 days after application
How it was run: as §1

[11] = tested on: johnsongrass (Sorghum halepense, SORHA); experiment: Post-emerge test, greenhouse herbicide activity screening; conditions: post-emerge, phytotoxicity rating 0-100 at 14 days after application
How it was run: (§2)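 Compounds in acetone were track-sprayed at 15–1000 g ai/ha: pre-emergence onto soil sown the previous day, then top-watered to incorporate and later bottom-watered; post-emergence onto 2–3 leaf plants with 0.25% v/v surfactant, bottom-watered only. Ratings on a 0–100 phytotoxicity scale were taken at day 14.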

[12] = tested on: redroot pigweed (Amaranthus retroflexus, AMARE); experiment: as above; conditions: post-emerge, phytotoxicity rating 0-100 at 14 days after application
How it was run: as §2

[13] = tested on: lambsquarters (Chenopodium album, CHEAL); experiment: as above; conditions: post-emerge, phytotoxicity rating 0-100 at 14 days after application
How it was run: as §2

[14] = tested on: sicklepod (Cassia obtusifolia, CASOB); experiment: as above; conditions: post-emerge, phytotoxicity rating 0-100 at 14 days after application
How it was run: as §2

[15] = tested on: green foxtail (Setaria viridis, SETVI); experiment: as above; conditions: post-emerge, phytotoxicity rating 0-100 at 14 days after application
How it was run: as §2

[16] = tested on: barnyardgrass (Echinochloa crus-galli, ECHCG); experiment: as above; conditions: post-emerge, phytotoxicity rating 0-100 at 14 days after application
How it was run: as §2

[17] = tested on: large crabgrass (Digitaria sanguinalis, DIGSA); experiment: as above; conditions: post-emerge, phytotoxicity rating 0-100 at 14 days after application
How it was run: as §2

[18] = tested on: velvetleaf (Abutilon theophrasti, ABUTH); experiment: as above; conditions: post-emerge, phytotoxicity rating 0-100 at 14 days after application
How it was run: as §2

[19] = tested on: ivyleaf morningglory (Ipomoea hederacea, IPOHE); experiment: as above; conditions: post-emerge, phytotoxicity rating 0-100 at 14 days after application
How it was run: as §2

[20] = tested on: upland rice (Oryza sp., var. Tebonnet, RICE); experiment: Pre-emerge test, crop safety; conditions: crop damage, pre-emerge, phytotoxicity rating 0-100 at 14 days after application
How it was run: (§3)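 Visual ratings on a 0-100 scale (0 no damage, 100 all plants dead) were taken at 14 days after treatment. Rates of 15-1000 g ai/ha in acetone, 187 l/ha, were sprayed onto soil one day after planting (pre-emerge) or onto 2-3 leaf plants with 0.25% v/v surfactant (post-emerge).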

[21] = tested on: field corn (Zea mays L., var. Dekalb 535, CORN); experiment: Pre-emerge test, crop safety; conditions: crop damage, pre-emerge, phytotoxicity rating 0-100 at 14 days after application
How it was run: as §3

[22] = tested on: upland rice (Oryza sp., var. Tebonnet, RICE); experiment: Post-emerge test, crop safety; conditions: post-emerge, crop damage rating 0-100 at 14 days after application
How it was run: (§4)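 Plants grown in 10 cm pots of sandy loam mix received acetone-dissolved compounds through a moving flat-fan nozzle. Doses ranged from 15 to 1000 g ai/ha. Pre-emerge pots were seeded one day earlier, post-emerge pots 8–21 days earlier. Fourteen days on, each pot was graded 0–100 for damage.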

[23] = tested on: field corn (Zea mays L., var. Dekalb 535, CORN); experiment: Post-emerge test, crop safety; conditions: post-emerge, crop damage rating 0-100 at 14 days after application
How it was run: as §4

`COc1c(Cl)cc(F)c(-n2ncc(C(F)(F)F)c(C)c2=O)c1NC(=O)c1ccc2ccccc2c1` [11-13] was tested, and the “Pre-emerge Herbicidal Activity AMARE” value ([1]; rate 63 g ai/ha) was 100, the “Pre-emerge Herbicidal Activity AMARE” value ([1]; rate 250 g ai/ha) was 10 and the “Pre-emerge Herbicidal Activity SORHA” value ([2]; rate 63 g ai/ha) was 0. The “Pre-emerge Herbicidal Activity SORHA” value ([2]; rate 250 g ai/ha) was 40, the “Pre-emerge Herbicidal Activity CHEAL” value ([3]; rate 63 g ai/ha) was 100 and the “Pre-emerge Herbicidal Activity CHEAL” value ([3]; rate 250 g ai/ha) was 100. The “Pre-emerge Herbicidal Activity CASOB” value ([4]; rate 63 g ai/ha) was 0, the “Pre-emerge Herbicidal Activity CASOB” value ([4]; rate 250 g ai/ha) was 85 and the “Pre-emerge Herbicidal Activity SETVI” value ([5]; rate 63 g ai/ha) was 70. For the same compound, the “Pre-emerge Herbicidal Activity SETVI” value ([5]; rate 250 g ai/ha) was 100, the “Pre-emerge Herbicidal Activity AMBEL” value ([6]; rate 63 g ai/ha) was 30 and the “Pre-emerge Herbicidal Activity AMBEL” value ([6]; rate 250 g ai/ha) was 60. For the same compound, the “Pre-emerge Herbicidal Activity ECHCG” value ([7]; rate 63 g ai/ha) was 30, the “Pre-emerge Herbicidal Activity ECHCG” value ([7]; rate 250 g ai/ha) was 80 and the “Pre-emerge Herbicidal Activity DIGSA” value ([8]; rate 63 g ai/ha) was 60. The “Pre-emerge Herbicidal Activity DIGSA” value ([8]; rate 250 g ai/ha) was 100, the “Pre-emerge Herbicidal Activity ABUTH” value ([9]; rate 63 g ai/ha) was 95 and the “Pre-emerge Herbicidal Activity ABUTH” value ([9]; rate 250 g ai/ha) was 100. The “Pre-emerge Herbicidal Activity IPOHE” value ([10]; rate 63 g ai/ha) was 65, the “Pre-emerge Herbicidal Activity IPOHE” value ([10]; rate 250 g ai/ha) was 80 and the “Post-emerge Herbicidal Activity SORHA” value ([11]; 63 g ai/ha) was 0. For the same compound, the “Post-emerge Herbicidal Activity SORHA” value ([11]; 250 g ai/ha) was 15, the “Post-emerge Herbicidal Activity AMARE” value ([12]; 63 g ai/ha) was 100 and the “Post-emerge Herbicidal Activity AMARE” value ([12]; 250 g ai/ha) was 100. The “Post-emerge Herbicidal Activity CHEAL” value ([13]; 63 g ai/ha) was 100, the “Post-emerge Herbicidal Activity CHEAL” value ([13]; 250 g ai/ha) was 100 and the “Post-emerge Herbicidal Activity CASOB” value ([14]; 63 g ai/ha) was 85. The “Post-emerge Herbicidal Activity CASOB” value ([14]; 250 g ai/ha) was 85, the “Post-emerge Herbicidal Activity SETVI” value ([15]; 63 g ai/ha) was 55 and the “Post-emerge Herbicidal Activity SETVI” value ([15]; 250 g ai/ha) was 40. For the same compound, the “Post-emerge Herbicidal Activity ECHCG” value ([16]; 63 g ai/ha) was 65, the “Post-emerge Herbicidal Activity ECHCG” value ([16]; 250 g ai/ha) was 55 and the “Post-emerge Herbicidal Activity DIGSA” value ([17]; 63 g ai/ha) was 40. The “Post-emerge Herbicidal Activity DIGSA” value ([17]; 250 g ai/ha) was 60, the “Post-emerge Herbicidal Activity ABUTH” value ([18]; 63 g ai/ha) was 95 and the “Post-emerge Herbicidal Activity ABUTH” value ([18]; 250 g ai/ha) was 100. The “Post-emerge Herbicidal Activity IPOHE” value ([19]; 63 g ai/ha) was 98, the “Post-emerge Herbicidal Activity IPOHE” value ([19]; 250 g ai/ha) was 98 and the “Pre-emerge Herbicidal Activity RICE” value ([20]; rate 63 g ai/ha) was 0. For the same compound, the “Pre-emerge Herbicidal Activity RICE” value ([20]; rate 250 g ai/ha) was 15, the “Pre-emerge Herbicidal Activity CORN” value ([21]; rate 63 g ai/ha) was 0 and the “Pre-emerge Herbicidal Activity CORN” value ([21]; rate 250 g ai/ha) was 0. For the same compound, the “Post-emerge Herbicidal Activity RICE” value ([22]; 63 g ai/ha) was 45, the “Post-emerge Herbicidal Activity RICE” value ([22]; 250 g ai/ha) was 65 and the “Post-emerge Herbicidal Activity CORN” value ([23]; 63 g ai/ha) was 45. For the same compound, the “Post-emerge Herbicidal Activity CORN” value ([23]; 250 g ai/ha) was 45.
